Target: T1, human NaV1.8 (Homo sapiens, UniProt Q9Y5Y9)
T1 construct: expressed in transfected cells
Experiment: Nav1.8 Qube® Assay (automated 384-well patch-clamp, inhibition of sodium current)
Format: cell-based
Settings: human NaV1.8 channels stably expressed in HEK 293 cells, room temperature
How it was run: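 Whole-cell voltage clamp at room temperature in HEK293 cells stably expressing NaV1.8; from −90 mV hold, 10 s 1 Hz train of 20 ms pulses to 10 mV with 980 ms repolarization to −67 mV. Peak currents of 1st and 10th pulses give resting and inactivated-state IC50s, Hill fit.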

T1 sequence (Q9Y5Y9 whole entry): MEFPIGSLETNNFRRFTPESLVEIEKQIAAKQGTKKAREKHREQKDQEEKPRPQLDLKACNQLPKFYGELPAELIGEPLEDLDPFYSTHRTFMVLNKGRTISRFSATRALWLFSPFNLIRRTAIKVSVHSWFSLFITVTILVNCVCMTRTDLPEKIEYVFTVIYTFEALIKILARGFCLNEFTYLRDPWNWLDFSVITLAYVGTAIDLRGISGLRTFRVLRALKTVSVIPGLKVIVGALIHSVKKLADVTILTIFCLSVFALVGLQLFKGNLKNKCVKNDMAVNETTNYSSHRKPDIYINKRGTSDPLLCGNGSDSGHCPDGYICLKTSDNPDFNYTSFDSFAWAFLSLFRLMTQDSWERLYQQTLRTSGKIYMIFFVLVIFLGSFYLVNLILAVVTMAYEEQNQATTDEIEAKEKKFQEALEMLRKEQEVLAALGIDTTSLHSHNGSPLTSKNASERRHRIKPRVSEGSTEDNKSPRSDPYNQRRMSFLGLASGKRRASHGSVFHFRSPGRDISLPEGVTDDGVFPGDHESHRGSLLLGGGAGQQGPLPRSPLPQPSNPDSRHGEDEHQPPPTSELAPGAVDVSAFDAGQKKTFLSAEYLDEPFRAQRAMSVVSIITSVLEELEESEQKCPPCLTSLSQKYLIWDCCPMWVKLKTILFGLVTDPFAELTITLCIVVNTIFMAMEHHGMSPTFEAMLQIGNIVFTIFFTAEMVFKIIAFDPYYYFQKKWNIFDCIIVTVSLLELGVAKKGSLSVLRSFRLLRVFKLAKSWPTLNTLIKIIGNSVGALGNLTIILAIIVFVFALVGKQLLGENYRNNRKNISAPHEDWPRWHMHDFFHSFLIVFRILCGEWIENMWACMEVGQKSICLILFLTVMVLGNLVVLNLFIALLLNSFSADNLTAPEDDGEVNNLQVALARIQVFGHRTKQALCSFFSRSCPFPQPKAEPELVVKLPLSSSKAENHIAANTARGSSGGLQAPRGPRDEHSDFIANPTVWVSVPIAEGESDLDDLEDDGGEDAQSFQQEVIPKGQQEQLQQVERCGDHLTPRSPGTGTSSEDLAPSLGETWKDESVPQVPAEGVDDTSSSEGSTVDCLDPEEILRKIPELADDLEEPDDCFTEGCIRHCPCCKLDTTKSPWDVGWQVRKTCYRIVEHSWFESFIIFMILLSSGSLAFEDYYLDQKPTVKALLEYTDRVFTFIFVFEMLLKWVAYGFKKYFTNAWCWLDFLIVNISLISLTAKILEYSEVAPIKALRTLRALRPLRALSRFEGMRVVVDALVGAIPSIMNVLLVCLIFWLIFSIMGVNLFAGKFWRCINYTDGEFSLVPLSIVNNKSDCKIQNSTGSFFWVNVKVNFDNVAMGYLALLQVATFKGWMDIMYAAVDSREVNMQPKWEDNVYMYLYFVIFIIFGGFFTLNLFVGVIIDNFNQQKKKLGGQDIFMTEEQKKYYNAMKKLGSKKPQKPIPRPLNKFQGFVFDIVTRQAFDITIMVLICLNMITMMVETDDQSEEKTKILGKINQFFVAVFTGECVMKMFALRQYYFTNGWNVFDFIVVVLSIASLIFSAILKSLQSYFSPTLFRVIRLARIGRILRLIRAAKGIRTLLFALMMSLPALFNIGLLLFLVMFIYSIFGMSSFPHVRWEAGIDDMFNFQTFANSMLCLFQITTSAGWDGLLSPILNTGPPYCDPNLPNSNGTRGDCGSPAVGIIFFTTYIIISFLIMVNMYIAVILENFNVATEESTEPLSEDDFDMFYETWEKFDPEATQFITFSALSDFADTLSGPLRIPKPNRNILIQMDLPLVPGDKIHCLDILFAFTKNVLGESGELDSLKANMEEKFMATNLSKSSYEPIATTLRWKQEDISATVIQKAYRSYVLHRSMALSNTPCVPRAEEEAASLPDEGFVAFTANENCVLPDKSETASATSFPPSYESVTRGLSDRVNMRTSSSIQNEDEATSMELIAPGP

`C[C@@H]1C(=O)NCCN1C(=O)NC(c1ccc(F)c(Cl)c1F)[C@H]1C[C@@H]1C(F)(F)F` (single isomer, unassigned) [Example 57C] showed an IC50 of 566 nM.

With `C[C@@H]1C(=O)NCCN1C(=O)NC(c1ccc(F)c(Cl)c1F)[C@H]1C[C@@H]1C(F)(F)F` (single isomer, unassigned) [Example 57D] the IC50 was 12 nM.

Work on `C[C@@H]1C(=O)NCCN1C(=O)NC(c1ccc(F)c(Cl)c1F)C1CCC(C(F)(F)F)C1` (single isomer, unassigned) [Example 58A, (2R)—N—((R or S)-(3-chloro-2,4-difluorophenyl)(cis-3-(trifluoromethyl)cyclopentyl)methyl)-2-methyl-3-oxopiperazine-1-carboxamide] yielded an IC50 of 9.23 nM.

`C[C@@H]1C(=O)NCCN1C(=O)NC(c1ccc(F)c(Cl)c1F)C1CCC(C(F)(F)F)C1` (single isomer, unassigned) [Example 58B, (2R)—N—((R or S)-(3-chloro-2,4-difluorophenyl)(cis-3-(trifluoromethyl)cyclopentyl)methyl)-2-methyl-3-oxopiperazine-1-carboxamide] gave an IC50 of 5.65 nM.

Compound `C[C@@H]1C(=O)NCCN1C(=O)NC(c1ccc(F)c(Cl)c1F)C1CCC(C(F)(F)F)C1` (single isomer, unassigned) [Example 58C, (2R)—N—((R or S)-(3-chloro-2,4-difluorophenyl)(trans-3-(trifluoromethyl)cyclopentyl)methyl)-2-methyl-3-oxopiperazine-1-carboxamide] has an IC50 of 5.1 nM.

`C[C@@H]1C(=O)NCCN1C(=O)NC(c1ccc(F)c(Cl)c1F)C1CCC(C(F)(F)F)C1` (single isomer, unassigned) [Example 58D, (2R)—N—((R or S)-(3-chloro-2,4-difluorophenyl)(trans-3-(trifluoromethyl)cyclopentyl)methyl)-2-methyl-3-oxopiperazine-1-carboxamide] was tested, and the IC50 was 6.03 nM.

Work on `[2H]C1([2H])NC(=O)C(C)N(C(=O)N[C@H](c2ccc(F)c(Cl)c2F)[C@H]2C[C@H](C(F)(F)F)C2)C1([2H])[2H]` (single isomer, unassigned) [Example 59A, (R or S)—N—((S)-(3-chloro-2,4-difluorophenyl)((trans)-3-(trifluoromethyl)cyclobutyl)methyl)-2-methyl-3-oxopiperazine-5,5,6,6-d4-1-carboxamide] yielded an IC50 of 2.6 nM.

`[2H]C1([2H])NC(=O)C(C)N(C(=O)N[C@H](c2ccc(F)c(Cl)c2F)[C@H]2C[C@H](C(F)(F)F)C2)C1([2H])[2H]` (single isomer, unassigned) [Example 59B, (S or R)—N—((S)-(3-chloro-2,4-difluorophenyl)((trans)-3-(trifluoromethyl)cyclobutyl)methyl)-2-methyl-3-oxopiperazine-5,5,6,6-d4-1-carboxamide] gave an IC50 of 44 nM.

With `C[C@@H]1C(=O)NCCN1C(=O)NC(c1ccc(F)c(C(F)(F)F)c1)C1CCC(C(F)(F)F)OC1` (single isomer, unassigned) [Example 60A, (2R)—N-((1(R or S))-(4-fluoro-3-(trifluoromethyl)phenyl)-trans-(6-(trifluoromethyl)tetrahydro-2H-pyran-3-yl)methyl)-2-methyl-3-oxopiperazine-1-carboxamide] the IC50 was 10.1 nM.

In the case of `C[C@@H]1C(=O)NCCN1C(=O)NC(c1ccc(F)c(C(F)(F)F)c1)C1CCC(C(F)(F)F)OC1` (single isomer, unassigned) [Example 60B, (2R)—N-((1(R or S))-(4-fluoro-3-(trifluoromethyl)phenyl)-trans-(6-(trifluoromethyl)tetrahydro-2H-pyran-3-yl)methyl)-2-methyl-3-oxopiperazine-1-carboxamide], the IC50 is reported as 51.2 nM.

Work on `C[C@@H]1C(=O)NCCN1C(=O)NC(c1ccc(F)c(Cl)c1F)C1COc2ccccc2C1` (single isomer, unassigned) [Example 62A, (R)—N—((R or S)-(3-chloro-2,4-difluorophenyl)((R or S)-chroman-3-yl)methyl)-2-methyl-3-oxopiperazine-1-carboxamide] yielded an IC50 of 3.2 nM.

For `C[C@@H]1C(=O)NCCN1C(=O)NC(c1ccc(F)c(Cl)c1F)C1COc2ccccc2C1` (single isomer, unassigned) [Example 62B, (R)—N—((R or S)-(3-chloro-2,4-difluorophenyl)((S or R)-chroman-3-yl)methyl)-2-methyl-3-oxopiperazine-1-carboxamide], the IC50 was 358 nM.

For `C[C@@H]1C(=O)NCCN1C(=O)NC(c1ccc(F)c(Cl)c1F)C1COc2ccccc2C1` (single isomer, unassigned) [Example 62C, (R)—N—((S or R)-(3-chloro-2,4-difluorophenyl)((R or S)-chroman-3-yl)methyl)-2-methyl-3-oxopiperazine-1-carboxamide], the IC50 was 488 nM.

`C[C@@H]1C(=O)NCCN1C(=O)NC(c1ccc(F)c(Cl)c1F)C1COc2ccccc2C1` (single isomer, unassigned) [Example 62D, (R)—N—((S or R)-(3-chloro-2,4-difluorophenyl)((S or R)-chroman-3-yl)methyl)-2-methyl-3-oxopiperazine-1-carboxamide] showed an IC50 of 0.8 nM.

Compound `O=C1NCCN(C(=O)N[C@H](c2ccc(F)c(Cl)c2F)[C@H]2C[C@H](C(F)(F)F)C2)C1C(F)(F)F` (single isomer, unassigned) [Example 63A, (R or S)—N—((S)-(3-chloro-2,4-difluorophenyl)((trans)-3-(trifluoromethyl)cyclobutyl)methyl)-3-oxo-2-(trifluoromethyl)piperazine-1-carboxamide] has an IC50 of 1.8 nM.

In the case of `O=C1NCCN(C(=O)N[C@H](c2ccc(F)c(Cl)c2F)[C@H]2C[C@H](C(F)(F)F)C2)C1C(F)(F)F` (single isomer, unassigned) [Example 63B, (S or R)—N—((S)-(3-chloro-2,4-difluorophenyl)((trans)-3-(trifluoromethyl)cyclobutyl)methyl)-3-oxo-2-(trifluoromethyl)piperazine-1-carboxamide], the IC50 is reported as 9.1 nM.

In the case of `C[C@@H]1C(=O)NCCN1C(=O)N[C@@H](c1ccc(F)c(Cl)c1F)[C@H]1C[C@H](C(F)(F)F)C1` [Example 20B, (R)—N—((R)-(3-chloro-2,4-difluorophenyl)(trans-3-(trifluoromethyl)cyclobutyl)methyl)-2-methyl-3-oxopiperazine-1-carboxamide], the IC50 is reported as 191 nM.

`O=C1CN(C(=O)N[C@H](c2ccc(F)c(Cl)c2F)[C@H]2C[C@H](C(F)(F)F)C2)CCN1` [Example 26, N—((S)-(3-chloro-2,4-difluorophenyl)(trans-3-(trifluoromethyl)cyclobutyl)methyl)-3-oxopiperazine-1-carboxamide] was tested, and the IC50 was 6.82 nM.

Work on `[2H][C@@]1(CF)C(=O)NCCN1C(=O)N[C@H](c1ccc(F)c(Cl)c1F)[C@H]1C[C@H](C(F)(F)F)C1` [Example 61, (S)—N—((S)-(3-chloro-2,4-difluorophenyl)((trans)-3-(trifluoromethyl)cyclobutyl)methyl)-2-(fluoromethyl)-3-oxopiperazine-2-d-1-carboxamide] yielded an IC50 of 0.7 nM.

Work on `O=C1NCCN(C(=O)N[C@H](c2ccc(F)c(Cl)c2F)[C@H]2C[C@H](C(F)(F)F)C2)[C@@H]1CO` [Example 64, (R)—N—((S)-(3-chloro-2,4-difluorophenyl)((trans)-3-(trifluoromethyl)cyclobutyl)methyl)-2-(hydroxymethyl)-3-oxopiperazine-1-carboxamide] yielded an IC50 of 3.2 nM.
